Inhibition and Activity data for 42 molecules are collected here from ChEMBL document CHEMBL5537205, “Discovery of D25, a Potent and Selective MNK Inhibitor for Sepsis-Associated Acute Spleen Injury” (J Med Chem, 2024).

One series deals with MV4-11. Nature of the series: Antiproliferative activity against human MV4-11 cells assessed as inhibition of cell proliferation at 20 uM incubated for 48 hrs by CCK8 assay relative to control. The format is functional. (Tetrazolium dyes change colour on reduction, which living cells bring about.)
Series [1] has as its system Mus musculus. The series is described as follows: Antiinflammatory activity in LPS-induced BALB/c sepsis mouse model assessed as decrease in cell gap in spleen at 2.5 mg/kg preadministered with compound via gavage for 14 days followed by LPS stimulation and measured after 6 hrs by H&E staining based analysis. The format is functional, organism-based. Conditions: time 342.0 hrs.

For series [2], the system named is Mus musculus. Nature of the series: Antiinflammatory activity in LPS-induced BALB/c sepsis mouse model assessed as decrease in inflammatory cells in spleen at 2.5 mg/kg preadministered with compound via gavage for 14 days followed by LPS stimulation and measured after 6 hrs by H&E staining based analysis. The format is functional, organism-based. Conditions: time 342.0 hrs.

For series [3], the system named is Mus musculus. Nature of the series: Antiinflammatory activity in LPS-induced BALB/c sepsis mouse model assessed as decrease in serum AST level at 2.5 mg/kg preadministered with compound via gavage for 14 days followed by LPS stimulation and measured after 6 hrs. It is filed as functional, organism-based. Conditions: time 342.0 hrs.
Series [4] relates to Mus musculus. Nature of the series: Antiinflammatory activity in LPS-induced BALB/c sepsis mouse model assessed as decrease in serum ALT level at 2.5 mg/kg preadministered with compound via gavage for 14 days followed by LPS stimulation and measured after 6 hrs. The settings on record: time 342.0 hrs. The format is functional, organism-based.
Series [5] relates to Mus musculus. Nature of the series: Antiinflammatory activity in LPS-induced BALB/c sepsis mouse model assessed as decrease in serum BUN level at 2.5 mg/kg preadministered with compound via gavage for 14 days followed by LPS stimulation and measured after 6 hrs. Conditions: time 342.0 hrs. It is filed as functional, organism-based.
In series [6] the test system is Mus musculus. The series is described as follows: Antiinflammatory activity in LPS-induced BALB/c sepsis mouse model assessed as decrease in serum creatinine level at 2.5 mg/kg preadministered with compound via gavage for 14 days followed by LPS stimulation and measured after 6 hrs. The format is functional, organism-based. Conditions: time 342.0 hrs.
For series [7], the system named is Mus musculus. Nature of the series: Antiinflammatory activity in LPS-induced BALB/c sepsis mouse model assessed as decrease in serum TNF-alpha level at 2.5 mg/kg preadministered with compound via gavage for 14 days followed by LPS stimulation and measured after 6 hrs by ELISA. It is filed as functional, organism-based. Conditions: time 342.0 hrs. On the technique in general: An ELISA detects its analyte on a solid surface through an enzyme-linked reagent.

The test system of series [8] is Mus musculus. The series is described as follows: Antiinflammatory activity in LPS-induced BALB/c sepsis mouse model assessed as decrease in serum IL-1beta level at 2.5 mg/kg preadministered with compound via gavage for 14 days followed by LPS stimulation and measured after 6 hrs by ELISA. The settings on record: time 342.0 hrs. The format is functional, organism-based.

Series [9] deals with Mus musculus. Nature of the series: Antiinflammatory activity in LPS-induced BALB/c sepsis mouse model assessed as decrease in serum IL-6 level at 2.5 mg/kg preadministered with compound via gavage for 14 days followed by LPS stimulation and measured after 6 hrs by ELISA. It is filed as functional, organism-based. Conditions: time 342.0 hrs.
For series [10], the system named is Mus musculus. Nature of the series: Antiinflammatory activity in LPS-induced BALB/c sepsis mouse model assessed as decrease in infiltration of macrophages in spleen at 2.5 mg/kg preadministered with compound via gavage for 14 days followed by LPS stimulation and measured after 6 hrs by immunohistochemistry analysis. Conditions: time 342.0 hrs. The format is functional, organism-based.

Series [11] relates to Mus musculus. The series is described as follows: Antiinflammatory activity in LPS-induced BALB/c sepsis mouse model assessed as decrease in MDA level in serum at 2.5 mg/kg preadministered with compound via gavage for 14 days followed by LPS stimulation and measured after 6 hrs. The format is functional, organism-based. The settings on record: time 342.0 hrs.
Series [12] has as its system Mus musculus. Nature of the series: Antiinflammatory activity in LPS-induced BALB/c sepsis mouse model assessed as increase in SOD level in serum at 2.5 mg/kg preadministered with compound via gavage for 14 days followed by LPS stimulation and measured after 6 hrs. It is filed as functional, organism-based. The settings on record: time 342.0 hrs.
The test system of series [13] is Mus musculus. Nature of the series: Antiinflammatory activity in LPS-induced BALB/c sepsis mouse model assessed as increase in GSH level in serum at 2.5 mg/kg preadministered with compound via gavage for 14 days followed by LPS stimulation and measured after 6 hrs. The format is functional, organism-based. The settings on record: time 342.0 hrs.
Series [14] relates to RAW264.7. The series is described as follows: Antiinflammatory activity in LPS-induced mouse RAW264.7 cells assessed as reduction in ROS level at 10 uM pretreated with compound followed by LPS stimulation and measured after 1 hrs by flow cytometric analysis. It is filed as functional, cell-based.
In series [15] the test system is RAW264.7. Nature of the series: Antiinflammatory activity against mouse RAW264.7 cells assessed as inhibition of LPS-NO production at 20 uM by Griess reagent based assay relative to control. The format is functional. In general terms: Griess reagent forms a coloured azo dye with nitrite.
The test system of series [16] is RAW264.7. The series is described as follows: Cytotoxicity against mouse RAW264.7 cells assessed as reduction in cell viability incubated for 24 hrs by MTT assay. It is filed as toxicity, cell-based. The settings on record: raw264.7, 24 h.
For series [17], the system named is RAW264.7. The series is described as follows: Antiinflammatory activity against mouse RAW264.7 cells assessed as inhibition of LPS-NO production by Griess reagent based assay. It is filed as functional, cell-based.

SMILES strings stand for the structures. Activity calls are given as the source filed them. The rule behind the calls is not given here. A value given as a limit tells only on which side of the number the result lay.

For orientation: inhibition means how much of the control response was suppressed. Take `Fc1cccc(-c2cc(C3CCNCC3)n[nH]2)c1`: the inhibition at 20 µM with MV4-11 was 0.1%. Same read-out and setting: under `Cc1cc(F)ccc1-c1cc(C2CCNCC2)n[nH]1` stands 31.2%. Regarding `C[C@@H]1C[C@H]2[C@@H]3CCC4=CC(=O)C=C[C@]4(C)[C@@]3(F)[C@@H](O)C[C@]2(C)[C@@]1(O)C(=O)CO`, the outcome with Mus musculus [1], with Mus musculus [2], in the series on Mus musculus [3], in the series with Mus musculus [4], with Mus musculus [5] and in the series on Mus musculus [6] was Active. For the same molecule, the outcome with Mus musculus [7], in the series with Mus musculus [8], with Mus musculus [9], in the series with Mus musculus [10], in the series with Mus musculus [11] and in the series with Mus musculus [12] was Active. Moreover, the result in the series on Mus musculus [13] and in the series on RAW264.7 [14] was Active.

`O=[N+]([O-])c1ccc(-c2cc(C3CCNCC3)n[nH]2)cc1`: the inhibition at 20 µM in the series with MV4-11 amounted to 4.6%. On the same count and under the same terms, under `Fc1ccc(-c2cc(C3CCNCC3)n[nH]2)cc1F` stands 6.4%; under `Clc1cc(-c2cc(C3CCNCC3)n[nH]2)ccn1`, 35.6%; under `Clc1cnccc1-c1cc(C2CCNCC2)n[nH]1`, 32.8%. The same measure, in the same setting: under `CN1CCC(c2cc(-c3ccncc3)[nH]n2)CC1` stands 3.39%; under `Brc1cnccc1-c1cc(C2CCNCC2)n[nH]1`, 6.1%; under `c1cncc(-c2cc(C3CCNCC3)n[nH]2)c1`, 0.2%.

In the case of `Fc1cc(-c2cc(C3CCNCC3)n[nH]2)cc(F)c1F`, in the series with MV4-11, the inhibition at 20 µM is 3.4%. On the same count and under the same terms, under `Nc1ncc(-c2cc(C3CCNCC3)n[nH]2)cn1` stands 37.9%.

In the case of `c1cc(-c2cc(C3CCNCC3)n[nH]2)ncn1`, the inhibition at 20 µM in the series on MV4-11 was found to be 0.2%. On the same count and under the same terms, under `Fc1ccc(-c2cc(C3CCNCC3)n[nH]2)cc1` stands 0.1%. The same measure, in the same setting: under `c1cc(-c2cc(C3CCNCC3)n[nH]2)cs1` stands 0.1%. The same measure, in the same setting: under `Fc1cc(-c2cc(C3CCNCC3)n[nH]2)ccn1` stands 0.1%; under `Brc1cc(-c2cc(C3CCNCC3)n[nH]2)ccn1`, 20.7%.

For the molecule `N#Cc1ccc(-c2cc(C3CCNCC3)n[nH]2)cc1`, the inhibition at 20 µM with MV4-11 was 6%; in the series with RAW264.7 [15], > 50%. As to `CN(C)c1cc(-c2cc(C3CCNCC3)n[nH]2)ccn1`, the inhibition at 20 µM in the series on MV4-11 was found to be 56.9%. The same measure, in the same setting: under `COc1cc(-c2cc(C3CCNCC3)n[nH]2)ccn1` stands 19.3%. As to `c1cc(-c2cc(C3CCNCC3)[nH]n2)ccn1`, the Activity result with RAW264.7 [16] is given as “Non-Toxic”. As to `Nc1cc(-c2cc(C3CCNCC3)n[nH]2)ccn1`, the inhibition at 20 µM with MV4-11 was 33.3%. Besides, in the series with RAW264.7 [17], the outcome was inactive. In addition, the Activity result in the series on RAW264.7 [16] is given as “Non-Toxic”. Consider `Clc1cc(-c2cc(C3CCNCC3)n[nH]2)cc(Cl)n1`, for which, in the series on MV4-11, the inhibition at 20 µM was 22.1%.

Take `Nc1ncccc1-c1cc(C2CCNCC2)n[nH]1`: the inhibition at 20 µM with MV4-11 is 15.2%. With `FC(F)(F)c1cc(-c2cc(C3CCNCC3)n[nH]2)ccn1`, the inhibition at 20 µM with MV4-11 worked out at 52.5%.

Consider `Clc1cncc(Cl)c1-c1cc(C2CCNCC2)n[nH]1`, for which the inhibition at 20 µM with MV4-11 came out at 19.6%. As for `CN1CCN(c2ccc(-c3cc(C4CCNCC4)n[nH]3)cc2)CC1`, the inhibition at 20 µM is 8.5% in the series on MV4-11 and > 50% in the series with RAW264.7 [15]. With `c1cc(-c2cc(C3CCNCC3)n[nH]2)ccn1`, the inhibition at 20 µM in the series on MV4-11 worked out at 51.2%. Besides, the outcome with RAW264.7 [17] was inactive. For `Cc1cc(-c2cc(C3CCNCC3)n[nH]2)ccn1`, the inhibition at 20 µM in the series on MV4-11 worked out at 0.1%. On the same count and under the same terms, under `FC(F)(F)c1ccc(-c2cc(C3CCNCC3)n[nH]2)cc1` stands 36%; under `Nc1ccc(-c2cc(C3CCNCC3)n[nH]2)cn1`, 35%; under `c1ccc(-c2cc(C3CCNCC3)n[nH]2)cc1`, 0.3%.

In the case of `CCNc1cc(-c2cc(C3CCNCC3)n[nH]2)ccn1`, the inhibition at 20 µM with MV4-11 amounted to 15.4%.

On to `Fc1cc(F)cc(-c2cc(C3CCNCC3)n[nH]2)c1`, for which the inhibition at 20 µM in the series on MV4-11 worked out at 2.1%.

In the case of `c1ncc(-c2cc(C3CCNCC3)n[nH]2)s1`, in the series on MV4-11, the inhibition at 20 µM was 11.1%. Same read-out and setting: under `c1ncc(-c2cc(C3CCNCC3)n[nH]2)cn1` stands 0.1%. Consider `Fc1cnccc1-c1cc(C2CCNCC2)n[nH]1`, for which the inhibition at 20 µM with MV4-11 came out at 0.1%. Also, the result in the series with RAW264.7 [17] was inactive. Besides, the Activity entry in the series on RAW264.7 [16] is listed as “Non-Toxic”. Consider `Cn1ccc2c(-c3cc(C4CCNCC4)n[nH]3)ccnc21`, for which, in the series on MV4-11, the inhibition at 20 µM amounted to 23.8%.

For the molecule `Fc1ccc(-c2cc(C3CCNCC3)n[nH]2)c(F)c1`, in the series on MV4-11, the inhibition at 20 µM worked out at 9.8%.

As for `CNc1cc(-c2cc(C3CCNCC3)n[nH]2)ccn1`, in the series with MV4-11, the inhibition at 20 µM is 30.2%. Still for that read-out and setting: under `c1cnc(-c2cc(C3CCNCC3)n[nH]2)cn1` stands 0.1%; under `Cc1cc(-c2cc(C3CCNCC3)n[nH]2)cc(C)n1`, 0.2%.
